Measured values: patent US20120202690A1, “HERBICIDAL COMPOUNDS” (SYNGENTA LIMITED, priority 2009, published 2012)

How the values were obtained:
[1] = test system: Ipomoea hederaceae (IPOHE); assay: Pre-emergence biological efficacy, glasshouse, 1000 g/ha, evaluated after 13 days (100=total damage to plant; 0=no damage to plant); type: in vivo; conditions: Ipomoea, 312 h, read-out: Percentage damage caused to weed species, pre-emergence, IPOHE; for pest or weed control at 1000 g/ha: rate 1,000 g/ha
Method in brief: (§1)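 Test species are sown into pots of standard soil. Plants then grow in the glasshouse under controlled conditions (24/16° C. day/night, 14 hours light, 65% humidity) and receive water twice a day.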

[2] = test system: Alopecurus myosuroides (ALOMY); assay: as above; type: in vivo; conditions: Alopecurus myosuroides, 312 h, read-out: Percentage damage caused to weed species, pre-emergence, ALOMY; for pest or weed control at 1000 g/ha: rate 1,000 g/ha
Method in brief: as §1

Solanum nigrum (SOLNI) [3] = assay: as above; type: in vivo; conditions: Solanum nigrum, 312 h, read-out: Percentage damage caused to weed species, pre-emergence, SOLNI; for pest or weed control at 1000 g/ha: rate 1,000 g/ha
Method in brief: as §1

[4] = test system: Amaranthus retroflexus (AMARE); assay: as above; type: in vivo; conditions: Amaranthus retroflexus, 312 h, read-out: Percentage damage caused to weed species, pre-emergence, AMARE; for pest or weed control at 1000 g/ha: rate 1,000 g/ha
Method in brief: as §1

[5] = test system: Echinochloa crus-galli (ECHCG); assay: as above; type: in vivo; conditions: Echinochloa crus-galli, 312 h, read-out: Percentage damage caused to weed species, pre-emergence, ECHCG; for pest or weed control at 1000 g/ha: rate 1,000 g/ha
Method in brief: as §1

Setaria faberi (SETFA) [6] = assay: as above; type: in vivo; conditions: Setaria faberi, 312 h, read-out: Percentage damage caused to weed species, pre-emergence, SETFA; for pest or weed control at 1000 g/ha: rate 1,000 g/ha
Method in brief: as §1

[7] = test system: Ipomoea hederaceae (IPOHE); assay: Post-emergence biological efficacy, glasshouse, 500 or 1000 g/ha, evaluated after 13 days (100=total damage to plant; 0=no damage to plant); type: in vivo; conditions: Ipomoea, 312 h, read-out: Percentage damage caused to weed species, post-emergence, IPOHE; for pest or weed control at 1000 g/ha: rate 1,000 g/ha
Method in brief: (§2)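 Plants raised from seed in pots of standard soil receive the spray after emergence. They then grow on under controlled glasshouse conditions (24/16° C. day/night, 14 hours light, 65% humidity) and are watered twice a day.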

[8] = test system: Alopecurus myosuroides (ALOMY); assay: as above; type: in vivo; conditions: Alopecurus myosuroides, 312 h, read-out: Percentage damage caused to weed species, post-emergence, ALOMY; for pest or weed control at 1000 g/ha: rate 1,000 g/ha
Method in brief: as §2

[9] = test system: Echinochloa crusgaffi (ECHCG); assay: as above; type: in vivo; conditions: Echinochloa, 312 h, read-out: Percentage damage caused to weed species, post-emergence, ECHCG; for pest or weed control at 1000 g/ha: rate 1,000 g/ha
Method in brief: as §2

Solanum nigrum (SOLNI) [10] = assay: as above; type: in vivo; conditions: Solanum nigrum, 312 h, read-out: Percentage damage caused to weed species, post-emergence, SOLNI; for pest or weed control at 1000 g/ha: rate 1,000 g/ha
Method in brief: as §2

[11] = test system: Amaranthus retroflexus (AMARE); assay: as above; type: in vivo; conditions: Amaranthus retroflexus, 312 h, read-out: Percentage damage caused to weed species, post-emergence, AMARE; for pest or weed control at 1000 g/ha: rate 1,000 g/ha
Method in brief: as §2

Setaria faberi (SETFA) [12] = assay: as above; type: in vivo; conditions: Setaria faberi, 312 h, read-out: Percentage damage caused to weed species, post-emergence, SETFA; for pest or weed control at 1000 g/ha: rate 1,000 g/ha
Method in brief: as §2

melting point	Compound	pest or weed control at 1000 g/ha [1]	pest or weed control at 1000 g/ha [2]	pest or weed control at 1000 g/ha (Solanum nigrum (SOLNI) [3])	pest or weed control at 1000 g/ha [4]	pest or weed control at 1000 g/ha [5]	pest or weed control at 1000 g/ha (Setaria faberi (SETFA) [6])	pest or weed control at 1000 g/ha [7]	pest or weed control at 1000 g/ha [8]	pest or weed control at 1000 g/ha [9]	pest or weed control at 1000 g/ha (Solanum nigrum (SOLNI) [10])	pest or weed control at 1000 g/ha [11]	pest or weed control at 1000 g/ha (Setaria faberi (SETFA) [12])	also measured
211 °C	COC(=O)c1nc(-c2ccc(Cl)c(F)c2)nc2c1n(Cc1ccccc1)c(=O)c(=O)n2Cc1ccccc1 [Compound 95-160, 2-(4-chloro-3-fluorophenyl)-5,8-dibenzyl-6,7-dioxo-4-methoxycarbonyl-5,6,7,8-tetrahydropteridine]	–	–	–	–	–	–	–	–	–	–	–	–	pest or weed control at 250 g/ha ([1]; rate 250 g/ha): 0%; pest or weed control at 250 g/ha ([2]; rate 250 g/ha): 0%; pest or weed control at 250 g/ha (Solanum nigrum (SOLNI) [3]; rate 250 g/ha): 0%; pest or weed control at 250 g/ha ([4]; rate 250 g/ha): 0%; pest or weed control at 250 g/ha ([5]; rate 250 g/ha): 0%; pest or weed control at 250 g/ha (Setaria faberi (SETFA) [6]; rate 250 g/ha): 0%; pest or weed control at 250 g/ha ([7]; rate 250 g/ha): 20%; pest or weed control at 250 g/ha ([8]; rate 250 g/ha): 10%; pest or weed control at 250 g/ha ([9]; rate 250 g/ha): 10%; pest or weed control at 250 g/ha (Solanum nigrum (SOLNI) [10]; rate 250 g/ha): 30%; pest or weed control at 250 g/ha ([11]; rate 250 g/ha): 20%; pest or weed control at 250 g/ha (Setaria faberi (SETFA) [12]; rate 250 g/ha): 40%
107 to 108 °C	CCOCn1cc(C)c2c(C(=O)OC)nc(-c3ccc(Cl)c(OC)c3F)nc21 [Compound 3-64, 2-(4-chloro-2-fluoro-3-methoxyphenyl)-7-ethoxymethyl-4-methoxycarbonyl-5-methyl-7H-pyrrolo[2,3-d]pyrimidine]	0%	0%	0%	0%	0%	0%	70%	0%	0%	40%	10%	0%	–
217 to 219 °C	COC(=O)c1nc(C2CC2)nc2c1Nc1ccccc1N2 [Compound 119-28, 2-Cyclo-propyl-4-methoxy-carbonyl-5,10-dihydro-benzo[g] pteridine]	0%	0%	0%	0%	0%	0%	10%	0%	0%	20%	20%	0%	–
162 to 165 °C	COC(=O)c1nc(C2CC2)nc2[nH]ccc12 [Compound 1-2, 2-Cyclopropyl-4-methoxycarbonyl-7H-pyrrolo[2,3-d]pyrimidine]	20%	0%	50%	30%	0%	0%	100%	10%	70%	90%	90%	90%	–
160 to 162 °C	COC(=O)c1nc(-c2ccc(Cl)c(OC)c2F)nc2ncccc12 [Compound 123-50, 2-(4-chloro-2-fluoro-3-methoxyphenyl)-4-methoxycarbonyl-pyrido[2,3-d]pyrimidine]	0%	0%	0%	0%	0%	0%	10%	0%	10%	20%	0%	10%	–
112 to 114 °C (dec.)	CCOCn1cc(C)c2c(C(=O)O)nc(-c3ccc(Cl)c(OC)c3F)nc21 [Compound 3-63, 4-carboxy-2-(4-chloro-2-fluoro-3-methoxyphenyl)-7-ethoxymethyl-5-methyl-7H-pyrrolo[2,3-d]pyrimidine]	20%	0%	50%	100%	0%	0%	60%	0%	10%	80%	80%	10%	–
135 °C	COC(=O)c1nc(-c2ccc(Cl)c(OC)c2F)nc2c1N(C(C)C)CCN2C(C)C [Compound 93-166, 2-(4-Chloro-2-fluoro-3-methoxyphenyl)-5,8-diisopropyl-4-methoxy-carbonyl-5,6,7,8-tetrahydropteridine]	0%	0%	0%	0%	0%	0%	10%	20%	10%	10%	0%	30%	–
97 °C	COC(=O)c1nc(-c2ccc(Cl)c(OC)c2F)nc2c1N(C)CCN2C [Compound 92-164, 2-(4-chloro-2-fluoro-3-methoxyphenyl)-5,8-dimethyl-4-methoxycarbonyl-5,6,7,8-tetrahydropteridine]	0%	0%	0%	0%	0%	0%	0%	0%	0%	10%	0%	0%	–
146 °C	COC(=O)c1nc(-c2ccc(Cl)c(OC)c2F)nc2c1N(Cc1ccccc1)CCN2Cc1ccccc1 [Compound 95-168, 2-(4-Chloro-2-fluoro-3-methoxyphenyl)-5,8-dibenzyl-4-methoxy-carbonyl-5,6,7,8-tetrahydropteridine]	0%	0%	0%	0%	0%	0%	10%	0%	0%	10%	0%	0%	–
–	COCCOCCOC(=O)c1nc(-c2ccc(Cl)c(OC)c2F)cc2[nH]cc(C)c12 [Compound 22-85, 6-(4-Chloro-2-fluoro-3-methoxyphenyl)-4-{2-[(2-methoxy)-ethoxy]-ethoxycarbonyl}-3-methyl-1H-pyrrolo[3,2-c]pyridine]	80%	10%	100%	100%	10%	10%	40%	30%	20%	90%	90%	20%	–
